Measured values as given in PMC3689638, “Cell cycle-dependent activity of the novel dual PI3K-MTORC1/2 inhibitor NVP-BGT226 in acute leukemia” (Molecular Cancer, 2013).

Tested on: AKT phosphorylation (Ser473, Thr308)
Test: western immunoblot of AKT signaling, MOLM14 or K562 cells
Format: cell-based, human
Excerpt: For comparative analysis, additional lysates from cells treated with an ABL1 or FLT3 tyrosine kinase inhibitor (imatinib for K562 BCR-ABL1 cells, sunitinib for MOLM14 FLT3 ITD cells) as well as rapamycin were used.
Rabbit anti-panAKT, panFLT3, panABL1 or anti-cleaved caspase 3 antibodies were used at a 1:500 to 1:1000 dilution. Rabbit anti-phospho-AKT antibodies detecting phosphorylated isoforms of T308-AKT, S473-AKT, S807/811-RB, S575-ULK1, T389-p70S6K, Y694-STAT5, FLT3, ABL1 or T202/Y204-ERK1/2 were used at a 1:250 to 1:1000 dilution. An anti-actin mouse monoclonal antibody was used as a loading control. All antibodies, if not otherwise indicated, were purchased from Cell Signaling Technology.
Cell pellets were lysed with 100 to 150 μl of protein lysis buffer (50 mmol/L Tris, 150 mmol/L NaCl, 1% NP40, 0.25% deoxycholate with added inhibitors aprotinin, AEBSF, leupeptin, pepstatin, sodium orthovanadate, and sodium pyruvate, respectively phosphatase inhibitor cocktails „2“ and „1“ or „3“ (Sigma, St. Louis, MO). Protein from cell lysates (75 to 200 μg protein) was used for whole cell protein analysis after denaturing by Western immunoblot assays using a BioRad Criterion system. Nonspecific binding was blocked by incubating the blots in nonfat dry milk or BSA. Primary antibodies were incubated for one hour or over night, followed by several washes of Tris-buffered saline (TBS) containing 0.005% Tween 20. The appropriate secondary antibody was applied for 30‘, followed by several washes. Antibody-reactive proteins were detected using a LI-COR Odyssey® fluorescence optical system.

For CO[C@H]1C[C@@H]2CC[C@@H](C)[C@@](O)(O2)C(=O)C(=O)N2CCCC[C@H]2C(=O)O[C@H]([C@H](C)C[C@@H]2CC[C@@H](O)[C@H](OC)C2)CC(=O)[C@H](C)/C=C(\C)[C@@H](O)[C@@H](OC)C(=O)[C@H](C)C[C@H](C)/C=C/C=C/C=C/1C [rapamycin], the “phosphorylation of AKT (immunoblot)” value was “did not suppress AKT phosphorylation”.
